Assays:
Male ICR mice [1] = details: mouse, in vivo, iv, 0.7 mg/kg
Male ICR mice [2] = details: mouse, in vivo, iv
[3] = assay type: physicochemical
Male ICR mice [4] = details: mouse, in vivo, iv; remark: listed apart in the source

Structure (SMILES): CCCCCc1cc(O)c2c(c1)OC(C)(C)[C@@H]1CCC(C)=C[C@@H]21 [THC, Δ^9-Tetrahydrocannabinol]
- TI (Male ICR mice [1]): 47
- LD50 [95% CL's] (Male ICR mice [2]): 75.4 [66.5-85.5] mg/kg
- recovery from aerosol [3]: ~87.5%
- inactive dose (Male ICR mice [4]): 0.7 mg/kg
